The test system of one series is LoVo. Nature of the series: cells. The following applies: Homo sapiens, 120 h.
The next series has as its target PARP 1, 2 and 3 (Homo sapiens, UniProt P09874+Q9Y6F1+Q9UGN5). Nature of the series: Inhibition of PARP in human LoVo cells assessed as inhibition of poly(ADP)-ribose polymerization for 30 mins by fluorescence assay. The format is cell-based.
Series [1] concerns the target Poly [ADP-ribose] polymerase 1 (Homo sapiens, UniProt P09874). The series can be described thus: Inhibition of human PARP1 using [3H]NAD as substrate after 1 min by microplate scintillation counting analysis.
The nature of series [2]: Cytotoxicity against BRCA2-deficient human Capan1 cells. The class given is functional, cell-based, CAPAN-1. The following applies: Homo sapiens, CAPAN-1.
The nature of series [3]: Half life in rat liver microsomes. The class given is ADME. (In general: Liver microsomes are a subcellular fraction often used to study metabolism.)

Structures are written as SMILES. Where only a bound is given, the exact number is not on record here.

By GI50 is commonly meant the concentration that inhibits growth by half. A high value points to lower sensitivity of the cells. One may read the EC50 as the midpoint of the concentration-response curve. Broadly, the IC50 is the concentration at which inhibition is half-maximal. The half-life is the time in which the quantity being followed falls by half. Low values mean rapid decline, high ones slow decline.

Sequence of Poly [ADP-ribose] polymerase 1 (P09874 whole entry): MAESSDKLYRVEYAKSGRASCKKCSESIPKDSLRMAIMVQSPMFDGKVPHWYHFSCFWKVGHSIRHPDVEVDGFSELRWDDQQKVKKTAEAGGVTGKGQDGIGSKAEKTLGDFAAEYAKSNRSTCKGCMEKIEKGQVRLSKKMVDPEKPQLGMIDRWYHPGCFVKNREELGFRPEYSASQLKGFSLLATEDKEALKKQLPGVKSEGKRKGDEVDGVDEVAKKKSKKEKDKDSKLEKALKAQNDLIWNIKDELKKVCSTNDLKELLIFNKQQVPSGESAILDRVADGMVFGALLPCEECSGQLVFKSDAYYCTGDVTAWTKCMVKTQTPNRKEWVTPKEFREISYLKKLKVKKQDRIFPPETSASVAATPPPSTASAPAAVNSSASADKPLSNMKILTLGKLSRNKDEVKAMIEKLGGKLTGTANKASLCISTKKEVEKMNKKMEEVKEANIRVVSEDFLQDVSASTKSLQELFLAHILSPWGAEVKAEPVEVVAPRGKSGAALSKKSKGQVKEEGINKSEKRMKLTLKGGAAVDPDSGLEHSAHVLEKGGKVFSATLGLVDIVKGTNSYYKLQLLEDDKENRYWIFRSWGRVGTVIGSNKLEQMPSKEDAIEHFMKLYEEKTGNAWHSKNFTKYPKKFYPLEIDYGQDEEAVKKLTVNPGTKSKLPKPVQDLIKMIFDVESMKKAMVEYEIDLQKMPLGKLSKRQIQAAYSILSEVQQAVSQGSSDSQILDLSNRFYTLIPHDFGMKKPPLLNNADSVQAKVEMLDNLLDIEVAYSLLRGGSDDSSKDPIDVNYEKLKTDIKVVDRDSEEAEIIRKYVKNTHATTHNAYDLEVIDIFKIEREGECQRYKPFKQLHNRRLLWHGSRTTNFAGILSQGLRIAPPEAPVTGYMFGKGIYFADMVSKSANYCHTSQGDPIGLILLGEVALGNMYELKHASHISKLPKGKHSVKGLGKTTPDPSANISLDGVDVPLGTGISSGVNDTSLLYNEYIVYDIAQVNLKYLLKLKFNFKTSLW

As to `Cn1ccnc1[C@@H]1c2n[nH]c(=O)c3cc(F)cc(c23)N[C@H]1c1ccc(F)cc1`, the GI50 with LoVo amounted to 104 nM. The EC50 on PARP 1, 2 and 3 was found to be 164 nM; in series [2] it was 124 nM. Moreover, the midpoint of inhibition in series [1], the IC50, lay at 22.4 nM.

For the molecule `Cn1ncnc1C1c2n[nH]c(=O)c3cc(F)cc(c23)NC1c1ccc(C#N)cc1` (centres undefined), half-maximal inhibition in series [1] (IC50) was put at 3.9 nM. This molecule also gave an EC50 in series [2] of 88 nM.

In the series on LoVo, `CN(C)Cc1ccc(C2Nc3cc(F)cc4c(=O)[nH]nc(c34)C2c2ccc(F)cc2)cc1` (centres undefined) came in with a GI50 of 94000 nM. The EC50 amounted to 6.1 nM at PARP 1, 2 and 3; 134 nM in series [2]. The molecule also had a half-life in series [3] of 82 min. The molecule also returned an IC50 in series [1] of 2.63 nM.

On to `Cn1ncnc1C1c2n[nH]c(=O)c3cc(F)cc(c23)NC1c1ccccc1` (centres undefined), for which the GI50 with LoVo is 24000 nM. The molecule further registered a half-life in series [3] of 472 min. For the same molecule, half-maximal inhibition in series [1] (IC50) was put at 2.6 nM. In series [2], this molecule registered an EC50 of 9 nM.

Regarding `Cn1ccnc1C1c2n[nH]c(=O)c3cccc(c23)NC1c1ccc(C(F)(F)F)cc1` (centres undefined), it took 192000 nM to inhibit growth in the series on LoVo by half (GI50). The EC50 on PARP 1, 2 and 3 turned out to be 27.2 nM; in series [2] it was 1100 nM. Moreover, 5.27 nM corresponded to half-maximal inhibition in series [1] (IC50).

In the case of `Cn1ncnc1[C@@H]1c2n[nH]c(=O)c3cc(F)cc(c23)N[C@H]1c1ccc(F)cc1`, in the series on LoVo, it took 1810 nM to inhibit growth by half (GI50). This molecule displayed a 50% effective concentration (EC50) in series [2] of 1140 nM.

`NC(=O)c1cccc2cn(-c3ccc([C@@H]4CCCNC4)cc3)nc12` [NIRAPARIB]: the EC50 in series [2] was 650 nM.

On to `O=c1[nH]nc2c3c(cccc13)NC(c1ccncc1)C2c1ccncc1` (centres undefined), for which the GI50 with LoVo was over 400000 nM. In series [1], this molecule registered an IC50 of 22.4 nM.

Molecule `O=c1[nH]nc2c3c(cccc13)NC(c1cccnc1)C2C1CCCNC1` (centres undefined) showed an IC50 in series [1] of 105 nM.

`CN1CCN(Cc2ccc(C3Nc4cccc5c(=O)[nH]nc(c45)C3c3ccccc3)cc2)CC1` (centres undefined): in the series on LoVo, the GI50 was 54600 nM. Further, the EC50 at PARP 1, 2 and 3 was found to be 40.6 nM; in series [2] it was 603 nM. Besides, the half-life in series [3] was found to be 19 min. The same molecule had a half-inhibitory concentration (IC50) in series [1] of 2.02 nM.

`Cn1ncnc1[C@@H]1c2n[nH]c(=O)c3cccc(c23)N[C@H]1c1ccc(F)cc1` came in with a GI50 with LoVo of 3260 nM. For the same molecule, the EC50 on PARP 1, 2 and 3 came out at 250 nM; in series [2], 1880 nM. Besides, the IC50 in series [1] stood at 68.9 nM.

Molecule `CN(C)Cc1ccc(C2Nc3cccc4c(=O)[nH]nc(c34)C2c2ccc(CN(C)C)cc2)cc1` (centres undefined) had a GI50 in the series with LoVo of 63000 nM. In addition, the EC50 is 18.6 nM at PARP 1, 2 and 3; 979 nM in series [2]. The same molecule had a half-life in series [3] of over 120 min. For the same molecule, the IC50 in series [1] worked out at 3.89 nM.

`O=c1[nH]nc2c3c(cccc13)NC(c1ccccn1)C2c1ccccn1` (centres undefined) came in with an IC50 in series [1] of 108 nM.

Consider `CN(C)Cc1ccc(C2Nc3cccc4c(=O)[nH]nc(c34)C2c2ccc(C(F)(F)F)cc2)cc1` (centres undefined), for which it took 94000 nM to inhibit growth in the series with LoVo by half (GI50). Also, the EC50 amounted to 6.7 nM at PARP 1, 2 and 3; 818 nM in series [2]. The molecule further gave an IC50 in series [1] of 6.29 nM.

For `O=c1[nH]nc2c3c(cccc13)N[C@@H](c1ccc(CN3CCC3)cc1)[C@@H]2c1ccc(F)cc1`, in the series on LoVo, the GI50 is 3570 nM. The EC50 on PARP 1, 2 and 3 is 11.8 nM; in series [2], 2250 nM. Besides, inhibition in series [1] was half-maximal at 5.6 nM (IC50).

On to `Cn1nccc1C1Nc2cc(F)cc3c(=O)[nH]nc(c23)C1c1ncnn1C` (centres undefined), for which, in series [1], inhibition was half-maximal at 2.88 nM (IC50). Besides, in series [2], the EC50 amounted to 1920 nM.

In turn, `Cn1ncnc1C1c2n[nH]c(=O)c3cccc(c23)NC1c1ccc(F)cc1` (centres undefined) yielded a GI50 with LoVo of 44000 nM. In addition, the EC50 on PARP 1, 2 and 3 was 6.94 nM; in series [2], 71 nM. This molecule also displayed a half-life in series [3] of over 120 min. Also, in series [1], it took 2.29 nM to reach half-maximal inhibition (IC50).

In the case of `O=c1[nH]nc2c3c(cccc13)NC(c1ccc(F)cc1)C2c1nccs1` (centres undefined), the GI50 with LoVo turned out to be 106000 nM. The EC50 at PARP 1, 2 and 3 amounted to 24.4 nM. This molecule also registered an IC50 in series [1] of 7.35 nM.

For `O=c1[nH]nc2c3c(cccc13)NC(c1cccnc1)C2c1cccnc1` (centres undefined), in series [1], the IC50 worked out at 17.7 nM.

In the series on LoVo, `Cn1ccnc1[C@@H]1c2n[nH]c(=O)c3cccc(c23)N[C@H]1c1ccc(F)cc1` showed a GI50 of over 10000 nM. Besides, the EC50 was 285 nM on PARP 1, 2 and 3; 6310 nM in series [2]. This molecule also had an IC50 in series [1] of 136 nM.

`O=c1[nH]nc2c3c(cccc13)NC(c1ccccc1)C2c1ccccc1` (centres undefined) showed a GI50 in the series with LoVo of 324000 nM. In addition, the EC50 on PARP 1, 2 and 3 came to 58.4 nM; in series [2] it was 2970 nM. The molecule also yielded an IC50 in series [1] of 6.1 nM.

In turn, `Cn1ccnc1C1c2n[nH]c(=O)c3cc(F)cc(c23)NC1c1ccc(F)cc1` (centres undefined) showed a GI50 with LoVo of 35700 nM. Further, the EC50 is 17 nM at PARP 1, 2 and 3; 56 nM in series [2]. Besides, the IC50 in series [1] is 1.87 nM.

The molecule `CN(C)Cc1ccc(C2Nc3cc(F)cc4c(=O)[nH]nc(c34)C2c2ccccc2)cc1` (centres undefined) returned a GI50 with LoVo of 46000 nM. Also, the EC50 at PARP 1, 2 and 3 came out at 8.48 nM; in series [2] it was 146 nM. The molecule also showed a half-life in series [3] of 5 min. The molecule further displayed an IC50 in series [1] of 3.29 nM.

`O=c1[nH]nc2c3c(cccc13)NC(c1ccc(CN3CCCC3)cc1)C2c1ccccc1` (centres undefined) registered a GI50 in the series on LoVo of 90000 nM. For the same molecule, the EC50 at PARP 1, 2 and 3 worked out at 9.47 nM; in series [2], 298 nM. Besides, the half-life in series [3] came out at 8 min. The molecule further had an IC50 in series [1] of 4.02 nM.

For `CC(C)c1ccc(C2c3n[nH]c(=O)c4cccc(c34)NC2c2ccc(CN(C)C)cc2)cc1` (centres undefined), in the series with LoVo, the GI50 was 123000 nM. Moreover, at PARP 1, 2 and 3, the EC50 amounted to 15.2 nM. In series [1], this molecule registered an IC50 of 9.59 nM.

In the series on LoVo, `Cn1nccc1C1c2n[nH]c(=O)c3cc(F)cc(c23)NC1c1ccc(F)cc1` (centres undefined) displayed a GI50 of over 400000 nM. Further, the EC50 was 9.33 nM on PARP 1, 2 and 3; 956 nM in series [2]. Moreover, the IC50 in series [1] is 1.84 nM.

`CN(C)Cc1ccc(C2c3n[nH]c(=O)c4cccc(c34)NC2c2ccccc2)cc1` (centres undefined): in the series with LoVo, it took 112000 nM to inhibit growth by half (GI50). For the same molecule, in series [3], the half-life was 6 min. In series [1], this molecule registered an IC50 of 5.85 nM.

In turn, `Cn1cnnc1C1c2n[nH]c(=O)c3cccc(c23)NC1c1ccccc1` (centres undefined) gave a GI50 with LoVo of over 400000 nM. Further, 2.76 nM corresponded to half-maximal inhibition in series [1] (IC50). Moreover, a half-maximal response in series [2] (EC50) required 4340 nM.

In turn, `CN(C)Cc1cccc(C2c3n[nH]c(=O)c4cccc(c34)NC2c2ccccc2)c1` (centres undefined) had a GI50 in the series with LoVo of 204000 nM. Besides, the half-life in series [3] is 11 min. The same molecule showed an IC50 in series [1] of 3.65 nM.

Regarding `Cn1ncnc1C1c2n[nH]c(=O)c3cc(F)cc(c23)NC1c1ccc(F)cc1` (centres undefined), in the series with LoVo, growth was halved (GI50) at 19000 nM. In series [3], this molecule displayed a half-life of 359 min. In series [2], this molecule came in with an EC50 of 8 nM.

As to `CN(C)Cc1cccc(C2Nc3cccc4c(=O)[nH]nc(c34)C2c2ccccc2)c1` (centres undefined), growth in the series on LoVo was halved (GI50) at 128000 nM. Besides, the 50% inhibitory concentration (IC50) in series [1] is 2.63 nM.

Regarding `Cn1ccnc1C1c2n[nH]c(=O)c3cc(Cl)cc(c23)NC1c1ccccc1` (centres undefined), the GI50 in the series with LoVo was 111000 nM. Also, the concentration giving a half-maximal response (EC50) on PARP 1, 2 and 3 is 121 nM; in series [2] it was 785 nM. This molecule also had an IC50 in series [1] of 6.18 nM.

In turn, `Cn1ncnc1C1c2n[nH]c(=O)c3cc(F)cc(c23)NC1c1cncnc1` (centres undefined) gave an IC50 in series [1] of 7.62 nM. This counts as single-digit nanomolar.

With `CC(C)C1c2n[nH]c(=O)c3cccc(c23)NC1c1ccccc1` (centres undefined), in series [1], the IC50 amounted to 4140 nM.

Take `Cn1ccnc1C1Nc2cccc3c(=O)[nH]nc(c23)C1c1nccn1C` (centres undefined): the IC50 in series [1] amounted to 24.5 nM.

`Cn1ccnc1C1Nc2cccc3c(=O)[nH]nc(c23)C1c1ccccc1` (centres undefined): in the series on LoVo, the GI50 was over 400000 nM. Moreover, it took 9.45 nM to reach half-maximal inhibition in series [1] (IC50).

The molecule `CC(=O)Nc1ccc(C2Nc3cc(F)cc4c(=O)[nH]nc(c34)C2c2ncnn2C)cc1` (centres undefined) yielded a half-life in series [3] of over 120 min. In addition, the midpoint of inhibition in series [1], the IC50, lay at 2.08 nM. For the same molecule, in series [2], it took 146 nM to reach a half-maximal effect (EC50).

The values are drawn from ChEMBL document CHEMBL3763037 (J Med Chem, 2016).
